Values of other authors, collected in patent publication US20140023692A1, “DRUG DELIVERY DEVICE” (priority 2010, published 2014).
≈ marks a conversion by molar mass, not a printed value. Where “and” joins values, the source holds several entries; their conditions need not be identical. Identical values can stand only once. Like-named read-outs stand apart in the source and are kept apart here.

How the values were obtained:
[1] = tested on: Enterobacter
[2] = tested on: Serratia
[3] = tested on: Bacillus cereus
[4] = tested on: Pseudomonas
[5] = topical application, rabbit
[6] = tested on: Streptococcus pyogenes
[7] = tested on: Staphylococcus aureus
[8] = tested on: Haemophilus influenzae
[9] = tested on: Proteus
[10] = tested on: Klebsiella
[11] = tested on: Staphylococcus epidermidis
[12] = tested on: Propionibacterium acnes
[13] = inflamed eyes (intravitreal Staphylococcus aureus, 24 h after inoculation)

Question: For `O=C(O)c1cn(C2CC2)c2cc(N3CCNCC3)c(F)cc2c1=O` [ciprofloxacin], which MIC90 [1] is on record?
Answer: 0.206 µg/mL (≈ 0.622 µM)

Question: What about the MIC90 [2] of the same compound?
Answer: 0.12 µg/mL (≈ 0.362 µM)

Question: What about the MIC90 [3] of the same compound?
Answer: 0.25 µg/mL (≈ 0.754 µM)

Question: And the MIC90 [4]?
Answer: 0.50 µg/mL and 0.626 µg/mL

Question: What about the “Mean aqueous concentration of ciprofloxacin” value [5, 13] of the same compound?
Answer: 3.65 µg/mL

Question: And the “Mean vitreous concentration of ciprofloxacin” value [5, 13]?
Answer: 0.32 µg/mL

Question: What about the “Mean aqueous concentration of ciprofloxacin” value ([5]; normal eyes) of the same compound?
Answer: 2.16 µg/mL

Question: What about the “Mean vitreous concentration of ciprofloxacin” value ([5]; normal eyes) of the same compound?
Answer: 0.08 µg/mL

Question: And the MIC90 [6]?
Answer: 0.782 µg/mL (≈ 2.36 µM)

Question: And the MIC90 [7]?
Answer: 0.57 µg/mL and 0.796 µg/mL

Question: And the MIC90 [8]?
Answer: 0.014 µg/mL (≈ 0.0423 µM)

Question: And the MIC90 [9]?
Answer: 0.267 µg/mL (≈ 0.806 µM)

Question: What about the MIC90 [10] of the same compound?
Answer: 0.295 µg/mL (≈ 0.89 µM)

Question: And the MIC90 [11]?
Answer: 0.25 µg/mL and 0.375 µg/mL

Question: What about the MIC90 [12] of the same compound?
Answer: 0.35 µg/mL (≈ 1.06 µM)
